From patent US8716284B2, “Adamantyl diamide derivatives and uses of same” (H. Lundbeck A/S, priority 2008, dated 2014)

Target: T1, rat metabotropic glutamate receptor 5 (mGluR5) (Rattus norvegicus, UniProt P31424)
T1 construct: expressed in transfected cells; host or cells: HEK 293
Assay: Calcium mobilization assay (FLIPR) for negative or positive allosteric activity, HEK 293 cells
Format: cell-based
Conditions: HEK293, negative allosteric modulation, inhibition of EC80 glutamate response; read-out: FLIPR maximum inhibition
Experimental: The cDNA for rat metabotropic glutamate receptor 5 (mGluR5) was a generous gift from S. Nakanishi (Kyoto University, Kyoto, Japan). The mGluR5 was stably expressed in a HEK 293 cell line and grown in Dulbecco's Modified Eagle Medium (DMEM) (Invitrogen, Carlsbad, Calif.) with supplements (10% bovine calf serum, 4 mM glutamine, 100 units/mL penicillin, 100 μg/mL streptomycin and 0.75 mM G1418) at 37° C., 5% CO2. Twenty-four hours prior to assay, cells were seeded into 384-well black wall microtiter plates coated with poly-D-lysine. Just prior to assay, media was aspirated and cells dye-loaded (25 μL/well) with 3 μM Fluo-4/0.01% pluronic acid in assay buffer (Hank's Balanced Saline Solution (HBSS)): 150 mM NaCl, 5 mM KCl, 1 mM CaCl2, 1 mM MgCl2, plus 20 mM N-2-Hydroxyethylpiperazine-N′-2-ethanesulfonic acid (HEPES), pH 7.4, 0.1% bovine serum albumin (BSA) and 2.5 mM probenicid) for 1 hour in 5% CO2 at 37° C. After excess dye was discarded, cells were washed in assay buffer and layered with a final volume equal to 30 μL/well. Basal fluorescence is monitored in a fluorometric imaging plate reader (FLIPR) (Molecular Devices, Sunnyvale, Calif.) with an excitation wavelength of 488 nm and an emission range of 500 to 560 nm. Laser excitation energy was adjusted so that basal fluorescence readings were approximately 10,000 relative fluorescent units. Cells were stimulated with an EC20 or an EC80 concentration of glutamate in the presence of a compound to be tested, both diluted in assay buffer, and relative fluorescent units were measured at defined intervals (exposure=0.6 sec) over a 3 min period at room temperature. Basal readings derived from negative controls were subtracted from all samples. Maximum change in fluorescence was calculated for each well. Concentration-response curves derived from the maximum change in fluorescence were analyzed by nonlinear regression (Hill equation). A negative modulator can be identified from these concentration-response curves if a compound produces a concentration dependent inhibition of the EC80 glutamate response. […] Examples 11-163 also were tested in the above assay.
A positive modulator can be identified from these concentration-response curves if a compound produces a concentration dependent increase in the EC20 glutamate response.

T1 sequence (P31424 21-1171 isoform P31424-2 limits assumed): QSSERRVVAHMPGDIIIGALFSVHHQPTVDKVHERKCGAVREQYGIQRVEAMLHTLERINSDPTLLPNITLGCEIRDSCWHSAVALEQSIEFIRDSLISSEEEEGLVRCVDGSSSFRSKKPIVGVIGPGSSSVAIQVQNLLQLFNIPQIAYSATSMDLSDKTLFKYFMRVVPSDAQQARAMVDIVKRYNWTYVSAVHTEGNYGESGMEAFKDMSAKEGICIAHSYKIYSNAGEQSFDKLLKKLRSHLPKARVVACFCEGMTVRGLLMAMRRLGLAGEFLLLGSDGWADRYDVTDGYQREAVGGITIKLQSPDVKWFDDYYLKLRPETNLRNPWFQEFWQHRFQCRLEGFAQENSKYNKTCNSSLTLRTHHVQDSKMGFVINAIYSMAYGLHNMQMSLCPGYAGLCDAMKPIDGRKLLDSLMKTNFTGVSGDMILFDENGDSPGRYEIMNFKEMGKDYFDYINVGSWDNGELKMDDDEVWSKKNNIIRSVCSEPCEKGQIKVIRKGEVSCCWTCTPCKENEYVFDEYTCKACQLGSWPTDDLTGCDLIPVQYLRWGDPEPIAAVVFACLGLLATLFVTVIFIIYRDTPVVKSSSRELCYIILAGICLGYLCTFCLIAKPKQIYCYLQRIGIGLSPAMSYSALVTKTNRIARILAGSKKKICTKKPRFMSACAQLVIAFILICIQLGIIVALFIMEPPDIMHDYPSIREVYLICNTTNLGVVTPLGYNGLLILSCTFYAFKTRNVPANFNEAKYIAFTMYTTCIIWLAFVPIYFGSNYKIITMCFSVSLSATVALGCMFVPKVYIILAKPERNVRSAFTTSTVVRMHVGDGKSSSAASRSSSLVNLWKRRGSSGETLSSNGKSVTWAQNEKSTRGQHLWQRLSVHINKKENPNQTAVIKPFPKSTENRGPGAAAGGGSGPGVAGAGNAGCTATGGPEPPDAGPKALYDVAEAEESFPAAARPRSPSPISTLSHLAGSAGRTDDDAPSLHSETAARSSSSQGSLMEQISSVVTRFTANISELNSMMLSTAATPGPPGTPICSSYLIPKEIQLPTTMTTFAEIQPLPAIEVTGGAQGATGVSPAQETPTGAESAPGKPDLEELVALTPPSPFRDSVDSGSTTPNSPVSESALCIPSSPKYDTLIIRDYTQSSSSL

Cc1cccc(C(=O)NC23CC4CC(C2)CC(NC(=O)c2scc5c2OCCO5)(C4)C3)n1 [Example 38, 6-Methyl-pyridine-2-carboxylic acid {3-[(2,3-dihydro-thieno[3,4-b][1,4]dioxine-5-carbonyl)-amino]-adamantan-1-yl}-amide] was tested, and the Emax was 63 to 99%.
In the case of Cc1cccc(C(=O)NC23CC4CC(CC(NC(=O)c5cc(C)on5)(C4)C2)C3)n1 [Example 39, 6-Methyl-pyridine-2-carboxylic acid {3-[(5-methyl-isoxazole-3-carbonyl)-amino]-adamantan-1-yl}-amide], the Emax is reported as 63 to 99%.
With Cc1cccc(C(=O)NC23CC4CC(C2)CC(NC(=O)c2nccs2)(C4)C3)n1 [Example 40, 6-Methyl-pyridine-2-carboxylic acid {3-[(thiazole-2-carbonyl)-amino]-adamantan-1-yl}-amide] the Emax was 63 to 99%.
With CCn1ccc(C(=O)NC23CC4CC(CC(NC(=O)c5cccc(C)n5)(C4)C2)C3)n1 [Example 42, 6-Methyl-pyridine-2-carboxylic acid {3-[(1-ethyl-1H-pyrazole-3-carbonyl)-amino]-adamantan-1-yl}-amide] the Emax was 63 to 99%.
In the case of COc1cccc(C(=O)NC23CC4CC(C2)CC(NC(=O)c2cccc(C)n2)(C4)C3)c1 [Example 43, 6-Methyl-pyridine-2-carboxylic acid [3-(3-methoxy-benzoylamino)-adamantan-1-yl]-amide], the Emax is reported as 63 to 99%.
Compound Cc1cccc(C(=O)NC23CC4CC(CC(NC(=O)c5cccc(CCl)c5)(C4)C2)C3)n1 [Example 45, 6-Methyl-pyridine-2-carboxylic acid [3-(3-chloromethyl-benzoylamino)-adamantan-1-yl]-amide] has an Emax of 63 to 99%.
Cc1cccc(C(=O)NC23CC4CC(C2)CC(NC(=O)C2CCC2)(C4)C3)n1 [Example 46, 6-Methyl-pyridine-2-carboxylic acid [3-(cyclobutanecarbonyl-amino)-adamantan-1-yl]-amide] was tested, and the Emax was 63 to 99%.
Work on Cc1cccc(C(=O)NC23CC4CC(C2)CC(NC(=O)C2CC(F)(F)C2)(C4)C3)n1 [Example 47, 6-Methyl-pyridine-2-carboxylic acid {3-[(3,3-difluoro-cyclobutanecarbonyl)-amino]-adamantan-1-yl}-amide] yielded an Emax of 63 to 99%.
For Cc1cccc(C(=O)NC23CC4CC(C2)CC(NC(=O)c2c5ccccc5nn2C)(C4)C3)n1 [Example 49, 2-Methyl-2H-indazole-3-carboxylic acid {3-[(6-methyl-pyridine-2-carbonyl)-amino]-adamantan-1-yl}-amide], the Emax was 63 to 99%.
Work on Cc1cccc(C(=O)NC23CC4CC(C2)CC(NC(=O)c2cn5cc(Cl)ccc5n2)(C4)C3)n1 [Example 50, 6-Chloro-imidazo[1,2-a]pyridine-2-carboxylic acid {3-[(6-methyl-pyridine-2-carbonyl)-amino]-adamantan-1-yl}-amide] yielded an Emax of 63 to 99%.
For Cc1cccc(C(=O)NC23CC4CC(CC(NC(=O)c5ccn6ccnc6c5)(C4)C2)C3)n1 [Example 51, Imidazo[1,2-a]pyridine-7-carboxylic acid {3-[(6-methyl-pyridine-2-carbonyl)-amino]-adamantan-1-yl}-amide], the Emax was 63 to 99%.
Cc1cccc(C(=O)NC23CC4CC(C2)CC(NC(=O)c2cn5ccccc5n2)(C4)C3)n1 [Example 52, Imidazo[1,2-a]pyridine-2-carboxylic acid {3-[(6-methyl-pyridine-2-carbonyl)-amino]-adamantan-1-yl}-amide] showed an Emax of 63 to 99%.
Cc1cccc(C(=O)NC23CC4CC(CC(NC(=O)c5ccc6nccn6c5)(C4)C2)C3)n1 [Example 53, Imidazo[1,2-a]pyridine-6-carboxylic acid {3-[(6-methyl-pyridine-2-carbonyl)-amino]-adamantan-1-yl}-amide] showed an Emax of 63 to 99%.
Compound Cc1ccc2nc(C(=O)NC34CC5CC(CC(NC(=O)c6cccc(C)n6)(C5)C3)C4)cn2c1 [Example 54, 6-Methyl-imidazo[1,2-a]pyridine-2-carboxylic acid {3-[(6-methyl-pyridine-2-carbonyl)-amino]-adamantan-1-yl}-amide] has an Emax of 63 to 99%.
For Cc1cccc(C(=O)NC23CC4CC(C2)CC(NC(=O)c2cn5c(C)cccc5n2)(C4)C3)n1 [Example 55, 5-Methyl-imidazo[1,2-a]pyridine-2-carboxylic acid {3-[(6-methyl-pyridine-2-carbonyl)-amino]-adamantan-1-yl}-amide], the Emax was 63 to 99%.
In the case of Cc1ccn2cc(C(=O)NC34CC5CC(CC(NC(=O)c6cccc(C)n6)(C5)C3)C4)nc2c1 [Example 56, 7-Methyl-imidazo[1,2-a]pyridine-2-carboxylic acid {3-[(6-methyl-pyridine-2-carbonyl)-amino]-adamantan-1-yl}-amide], the Emax is reported as 63 to 99%.
Cc1cccc(C(=O)NC23CC4CC(C2)CC(NC(=O)c2cccc(Cl)n2)(C4)C3)n1 [Example 57, 6-Chloro-pyridine-2-carboxylic acid {3-[(6-methyl-pyridine-2-carbonyl)-amino]-adamantan-1-yl}-amide] showed an Emax of 63 to 99%.
O=C(NC12CC3CC(C1)CC(NC(=O)c1ccccn1)(C3)C2)c1cccc(F)c1 [Example 59, Pyridine-2-carboxylic acid [3-(3-fluoro-benzoylamino)-adamantan-1-yl]-amide] showed an Emax of 63 to 99%.
In the case of O=C(NC12CC3CC(C1)CC(NC(=O)c1ccncn1)(C3)C2)c1ccccn1 [Example 60, Pyrimidine-4-carboxylic acid {3-[(pyridine-2-carbonyl)-amino]-adamantan-1-yl}-amide], the Emax is reported as 63 to 99%.
O=C(NC12CC3CC(C1)CC(NC(=O)c1cccc(N4CCCC4)n1)(C3)C2)c1ccccn1 [Example 61, 6-Pyrrolidin-1-yl-pyridine-2-carboxylic acid {3-[(pyridine-2-carbonyl)-amino]-adamantan-1-yl}-amide] gave an Emax of 63 to 99%.
Compound O=C(NC12CC3CC(C1)CC(NC(=O)c1onc4ccccc14)(C3)C2)c1ccccn1 [Example 62, Benzo[c]isoxazole-3-carboxylic acid {3-[(pyridine-2-carbonyl)-amino]-adamantan-1-yl}-amide] has an Emax of 63 to 99%.
CNC(=O)c1cccc(C(=O)NC23CC4CC(CC(NC(=O)c5ccccn5)(C4)C2)C3)n1 [Example 64, Pyridine-2,6-dicarboxylic acid 2-methylamide 6-({3-[(pyridine-2-carbonyl)-amino]-adamantan-1-yl}-amide)] was tested, and the Emax was 63 to 99%.
For O=C(NC12CC3CC(C1)CC(NC(=O)c1ccc4[nH]ccc4n1)(C3)C2)c1ccccn1 [Example 66, 1H-Pyrrolo[3,2-b]pyridine-5-carboxylic acid {3-[(pyridine-2-carbonyl)-amino]-adamantan-1-yl}-amide], the Emax was 63 to 99%.
COc1cccc(C(=O)NC23CC4CC(CC(NC(=O)c5ccccn5)(C4)C2)C3)n1 [Example 68, 6-Methoxy-pyridine-2-carboxylic acid {3-[(pyridine-2-carbonyl)-amino]-adamantan-1-yl}-amide] showed an Emax of 63 to 99%.
In the case of CC(C)(C)OC(=O)N1CCc2cc(C(=O)NC34CC5CC(C3)CC(NC(=O)c3ccccn3)(C5)C4)ccc2C1 [Example 70, 6-{3-[(Pyridine-2-carbonyl)-amino]-adamantan-1-yl-carbamoyl}-3,4-dihydro-1H-isoquinoline-2-carboxylic acid tert-butyl ester], the Emax is reported as 63 to 99%.
Compound O=C(NC12CC3CC(C1)CC(NC(=O)c1ccccn1)(C3)C2)c1ccccc1 [Example 71, Pyridine-2-carboxylic acid (3-benzoylamino-adamantan-1-yl)-amide] has an Emax of 63 to 99%.
For Cc1cc(C(=O)NC23CC4CC(CC(NC(=O)c5ccccn5)(C4)C2)C3)no1 [Example 73, Pyridine-2-carboxylic acid {3-[(5-methyl-isoxazole-3-carbonyl)-amino]-adamantan-1-yl}-amide], the Emax was 63 to 99%.
Compound O=C(NC12CC3CC(C1)CC(NC(=O)c1cccs1)(C3)C2)c1ccccn1 [Example 75, Pyridine-2-carboxylic acid {3-[(thiophene-2-carbonyl)-amino]-adamantan-1-yl}-amide] has an Emax of 63 to 99%.
In the case of Cn1ccc(C(=O)NC23CC4CC(CC(NC(=O)c5ccccn5)(C4)C2)C3)n1 [Example 76, Pyridine-2-carboxylic acid {3-[(1-methyl-1H-pyrazole-3-carbonyl)-amino]-adamantan-1-yl}-amide], the Emax is reported as 63 to 99%.
Compound O=C(NC12CC3CC(C1)CC(NC(=O)c1ccno1)(C3)C2)c1ccccn1 [Example 77, Pyridine-2-carboxylic acid {3-[(isoxazole-5-carbonyl)-amino]-adamantan-1-yl}-amide] has an Emax of 63 to 99%.
For Cc1cc(C(=O)NC23CC4CC(CC(NC(=O)c5ccccn5)(C4)C2)C3)on1 [Example 78, Pyridine-2-carboxylic acid {3-[(3-methyl-isoxazole-5-carbonyl)-amino]-adamantan-1-yl}-amide], the Emax was 63 to 99%.
